Here are results for two compounds from US11478488B2, “Co-crystals of tramadol and coxibs” (ESTEVE PHARMACEUTICALS, S.A., priority 2009, dated 2022).

Read-outs that look alike come from different tables or passages of the source.

The subject of assay [1] is motor behaviour of monoarthritic rats (carrageenan-induced gait changes). Description: Pain-induced gait adaptation (CBMS) in carrageenan-induced acute monoarthritic model. To be noted: intraperitoneal 4.5 h after carrageenan, measured 30 min after administration; co-crystal 20 mg/kg, single drugs at corresponding dose.
Description: Movement-evoked pain was evaluated by a computerized behavioral monitoring system (CBMS).
The rat carrageenan model utilizes inflammation-associated pain following injection of the knee joint (monoarthritic model). […] The CBMS was used to assess gait related changes 5 hours after carrageenan injection and 30 min after drugs administration. […] Mechanical allodynia was measured with von Frey filaments 15 minutes after CBMS gait analysis.
Food and water were available ad libitum up to test time.
The dosing volume was 2 ml/kg. The drug response of the animal was subsequently evaluated 30 and 45 min after drug administration (for CBMS and von Frey respectively).
Joint inflammation was induced by carrageenan (Sigma Chemical, St. Louis, Mo.) injected percutaneously using a 30-gauge needle through the infrapatellar ligament into the right knee joint cavity (300 μg, 40 μl) with the animal under brief isoflurane (IsoFlo®, Abbott-Esteve, Barcelona, Spain) anaesthesia (3%).
Detailed analysis of gait was performed on walking rats using the CBMS method. Briefly, light from a fluorescent tube is sent through a glass plate. Light rays are completely reflected internally. As soon as anything, e.g. a rat's paw, is in contact with the glass surface, light is reflected downwards. It results in a sharp image of a bright paw print. The whole run is recorded via a camera placed under the glass plate. […]
In assay [2] the test system is incision-induced mechanical allodynia in the incised rat hind paw. Description: Mechanical allodynia (von Frey filaments) in paw incision postoperative pain model. It is filed as in vivo, Wistar rats. The conditions noted are these: ip. As to the method:
(§1) Male, Wistar rats (120-160 g, Harlan, Italy) were housed in a climate-controlled room for at least 5 days prior to testing.
(§2) The dosing volume was 10 ml/kg. The antihyperalgesic or antiallodynic response of the animal was subsequently evaluated 60 min after drug administration.
(§3) Rats were anaesthetized with 3% isofluorane for veterinary use, employing an Ohmeda vaporizer and an anaesthesia chamber. Anaesthesia was kept during the surgical operation by a tube which directs the isoflurane vapours to the animal's snout. Once the rats were anaesthetised, they were laid down in a prone position and their right hindpaws were cleaned out with alcohol. Then, a 1 cm longitudinal incision was made with a number 23 scalpel, through skin and fascia of the plantar aspect of the paw, starting 0.5 cm from the proximal edge of the heel and extending toward the toes. Therefore, both superficial (skin) and deep (muscle) tissues and nerves were injured. Finally, the skin of the paw was stitched with a suturing stitch with breaded silk (3.0) and the wound was cleaned out with povidone.
(§4) The drugs were tested 4 hours after the surgery (plantar incision); 60 minutes after the administration of the product, two behavioural endpoints were evaluated: thermal hypersensitivity or hyperalgesia, and mechanical hypersensitivity or allodynia.
Mechanical allodynia was tested using von Frey filaments. Animals were placed in methacrylate cylinders on an elevated surface, with metallic mesh floor perforated in order to apply the filaments. After an acclimation period of about 30 minutes within the cylinders, both hindpaws were stimulated (the injured and the non-injured paw, serving the latter as control), starting with the lowest force filament (0.4 g) and reaching up to a 15 g filament. The animal's response to pain was manifested by the withdrawal of the paw as a consequence of the painful stimulus caused by a filament. The pressure (force in grams) threshold eliciting the withdrawal of the paw was recorded.
Where it is established that Zmix<Zadd for a specific fixed-ratio, then that composition has a synergistic anti-hyperalgesic effect. Both ED50 mix and ED50 add values are random variables. ED50 mix is determined from the dose-response curve for a specific fixed-ratio of the components; ED50 add is calculated from the ED50 values for the individual drugs. Zmix is then compared to Zadd via a Student's t-test.

Assay [3] concerns incision-induced thermal hyperalgesia in the incised rat hind paw. The assay can be described thus: Thermal hyperalgesia (plantar test, Hargreaves) in paw incision postoperative pain model. It is filed as in vivo, Wistar rats. To be noted: for ED50: read-out: ED50 thermal hyperalgesia (after sigmoidal adjustment); for Efficacy on thermal hyperalgesia: rat paw incision, intraperitoneal dose response, FIG. 8. As to the method:
as §1, §2, §3, §4
Animals were placed in the methacrylate cages of said apparatus, having a crystal floor. The acclimation period within the cages was about 10 minutes. The thermal stimulus came from a lamp moving below the crystal floor and which was applied to both paws, with a minimum interval of 1 minute between both stimulations in order to avoid learning behaviours. The rat is able to withdraw the paw freely when it feels discomfort (pain) produced by the heat coming from the lamp; then it is switched off and the latency time to the withdrawal response is recorded in seconds. In order to avoid hurting the animal's paw, the lamp was automatically switched off after 32 seconds.

The mark [4] stands for this setting: intraperitoneal single dose, 4 h after surgery, evaluated 60 min after administration, read-out: ED50 mechanical allodynia (after sigmoidal adjustment).
[5] abbreviates: intraperitoneal, separate ED50 of single drugs for isobologram analysis, read-out: ED50 on mechanical allodynia as used in the isobologram (FIG. 7).

As to `COc1cccc(C2(O)CCCCC2CN(C)C)c1` (racemic) [Tramadol, 2-(dimethylaminomethyl)-1-(3-methoxyphenyl)cyclohexanol], in assay [1], the “Effect on carrageenan-induced gait changes (CBMS)” value is recorded as “inhibited”. Moreover, the ED50 is 5.41 mg/kg in assay [2] (setting [4]); 5.28 mg/kg in assay [2] (setting [5]); 8.3 mg/kg in assay [3] (Rattus norvegicus, ip). Moreover, the “Efficacy on thermal hyperalgesia” value in assay [3] was “full efficacy”.

Regarding `Cc1ccc(-c2cc(C(F)(F)F)nn2-c2ccc(S(N)(=O)=O)cc2)cc1` [Celecoxib, 4-[5-(4-methylphenyl)-3-(trifluoromethyl)-pyrazol-1-yl]benzenesulfonamide], the “Effect on carrageenan-induced gait changes (CBMS)” value in assay [1] was “inhibited”. For the same compound, the ED50 was found to be 3.03 mg/kg in assay [2] (setting [4]); 3.01 mg/kg in assay [2] (setting [5]); 2.35 mg/kg in assay [3] (Rattus norvegicus, ip). The Emax in assay [3] (Rattus norvegicus, ip, 1 h, read-out: Emax thermal hyperalgesia, rat paw incision, intraperitoneal, 60 min after administration) was found to be 45%. Also, in assay [3], the “Efficacy on thermal hyperalgesia” value is listed as “only a partial response”.

As usually defined, the ED50 is the dose that gives a 50% effect, or the effect in half of the subjects.
